Source: patent US11981695B2, “Linoleic acid derivatives, pharmaceutical composition or food composition comprising said linoleic acid derivatives, and their uses” (UNIVERSITÉ DE BOURGOGNE, priority 2018, dated 2024)
Entries after “also recorded” stand apart in the source; their conditions may differ.

What was measured:
CD36 = target: T1, CD36 (Mus musculus, UniProt Q08857); experiment: Ca2+ signaling in mouse taste bud cells in presence or absence of CD36 inhibitor SSO; assay type: cell-based; conditions: for action of CD36 inhibitor SSO on the increase in [Ca2+]i: 20 μM SSO, mouse taste bud cells; for CD36 agonist character: judged from suppression by SSO
T1 construct: freshly isolated and primary cultured mice type II taste bud cells (expressing GPR120 and CD36) are used; endogenous in cells; host or cells: primary mouse taste bud cells from fungiform papillae
T1 sequence (Q08857 whole entry): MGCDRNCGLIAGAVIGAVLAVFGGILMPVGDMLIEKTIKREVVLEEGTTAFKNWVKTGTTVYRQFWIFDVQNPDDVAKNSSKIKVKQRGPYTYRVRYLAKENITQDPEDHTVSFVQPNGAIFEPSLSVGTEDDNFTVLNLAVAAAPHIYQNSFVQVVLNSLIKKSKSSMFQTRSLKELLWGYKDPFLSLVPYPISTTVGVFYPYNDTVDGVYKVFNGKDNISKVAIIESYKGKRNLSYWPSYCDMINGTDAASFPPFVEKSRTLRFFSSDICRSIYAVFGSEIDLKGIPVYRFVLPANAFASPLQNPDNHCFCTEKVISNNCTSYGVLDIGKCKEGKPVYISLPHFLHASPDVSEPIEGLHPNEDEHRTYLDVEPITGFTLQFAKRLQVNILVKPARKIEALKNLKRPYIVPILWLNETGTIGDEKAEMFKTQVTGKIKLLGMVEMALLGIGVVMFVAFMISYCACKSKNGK
Method: (§1) The mouse taste bud cells were seeded in 24-well plates (with glass bottom), containing poly-D-lysine for better adhesion to the surface. After 24 h, taste cells were incubated for 45 minutes with a fluorescent probe, Fura-2/AM (1 μM) in calcium buffer (110 mM NaCl, 5.4 mM, KCl, 25 mM, NaHCO3, 0.8 mM, MgCl2, 0.4 mM, KH2PO4, 20 mM, Hepes-Na, 0.33 mM, NaHPO4, 1.2 mM, CaCl2, pH 7.4). Then, the cells are washed with phosphate buffer saline (PBS) and taken up in calcium buffer.
(§2) The changes in intracellular Ca^2+ (F340/F380) were monitored under a Nikon microscope (TiU) by using an S Fluor 40× oil immersion objective.
(§3) Especially, the increases in [Ca^2+ ]i were measured as follows: the mice taste bud cells were cultured on Willico-Dish wells with a glass bottom and loaded with a fluorescent probe, Fura-2/AM. The changes in intracellular Ca^2+ (F340/F380) were monitored under the Nikon microscope (TiU) by using S-fluor 40× oil immersion objective. The planes were taken at Z intervals of 0.3 μm, and NIS-Elements software was used to deconvolve the images. The microscope was equipped with EM-CCD (Lucas) camera for real time recording of 16-bit digital images. The dual excitation fluorescence imaging system was used for studies of individual cells. The changes in intracellular Ca^2+ were expressed as ΔRatio, which was calculated as the difference between the peak F340/F380 ratio. The data were summarized from the large number of individual cells (20-40 cells in a single run, with 3-9 identical experiments done in at least three cell preparations). The results were analyzed with the NIS-elements software, the variation in [Ca^2+]i is expressed as Δ ratio (F340/F380 which was calculated with the difference of spectra at two wavelengths, i.e., 340 nm and 380 nm.
CD36: in order to assess if the linoleic acid derivatives according to the invention exert their actions via CD36, sulfo-N-succinimidyl oleate (SSO) was used. SSO is a CD36 inhibitor/blocker/antagonist.
Experiments were performed in the presence or absence of SSO with respect to calcium signaling to verify whether our analogs act well via this lipid receptor. Especially, for this assay, NKS-3, NKS-5 and linoleic acid (control) were tested.

obese C57BL/6J mice [1] = experiment: Diet-induced obesity, body weight; assay type: in vivo, mouse; conditions: for body weight in obese mice: HFD, analogues in feeder bottles from 10th to 28th week, NKS-5 75 μM, NKS-3 50 μM; for body weight of control animals: normal diet
Method: (§4) C57BL/6J male mice, aged between 6 to 10 weeks (16-20 g), were obtained from Janvier Labs (France). They were housed individually in a controlled environment with a 12 h light/dark cycle with food (SAFE, France) and water ad libitum. The palm oil (Huilerie Vigean, France) was the main fat component in high-fat diets. The high-fat diet was prepared weekly and stored at 4° C. until further use. The study was conducted as per Declaration of Helsinki and European ethical guidelines for the care and use of animals for experimentation. All the experimental protocols (protocol number: 16158) were approved by the Regional Ethical Committee of the University of Burgundy (Dijon, France).
(§5) The mice were grouped at random (n=10/group) and fed with either of the following diets: standard diet (STD) or high-fat diet (HFD). The body weight, food, and water intake were measured, weekly.
(§6) After 10 weeks of feeding the diets, obese animals were divided into two groups: one groups continued to be fed on the same HFD; however, another group was fed on the same diet and received either NKS-3 or NKS-5) until 28th of weeks of experimentation. At the end, the animals were sacrificed, under a fasting condition, and used for different analysis in blood and different tissues.
In order to elucidate the beneficial effects and especially during obesity, experiments were conducted on obese C57BL/6J mice. […] In order to test the curative/interventional effects on obesity, the animals were divided into two groups: one group that consume only the high-fat diet (HFD) and the other consuming the same diet and also receiving NKS-3 or NKS-5 in adlibitum baby bottles/feeders. From the 10th week of the diet, lipid analogues were introduced into the bottles at concentrations that corresponded to their preference in the double choice test (NKS-5 at 75 μM; NKS-3 at 50 μM). […] In addition, the decrease in obesity was maintained until the 28th week of feeding a HFD (FIGS. 13A and 13B).

GPR120 = target: T2, GPR120 (Mus musculus, UniProt Q7TMA4); experiment: Ca2+ signaling in mouse taste bud cells in presence or absence of GPR120 antagonist AH7614; assay type: cell-based; conditions: AH7614 20 μM, NKS-5 50 μM
T2 construct: freshly isolated and primary cultured mice type II taste bud cells (expressing GPR120 and CD36) are used; endogenous in cells; host or cells: primary mouse taste bud cells from fungiform papillae
T2 sequence (Q7TMA4 1-361): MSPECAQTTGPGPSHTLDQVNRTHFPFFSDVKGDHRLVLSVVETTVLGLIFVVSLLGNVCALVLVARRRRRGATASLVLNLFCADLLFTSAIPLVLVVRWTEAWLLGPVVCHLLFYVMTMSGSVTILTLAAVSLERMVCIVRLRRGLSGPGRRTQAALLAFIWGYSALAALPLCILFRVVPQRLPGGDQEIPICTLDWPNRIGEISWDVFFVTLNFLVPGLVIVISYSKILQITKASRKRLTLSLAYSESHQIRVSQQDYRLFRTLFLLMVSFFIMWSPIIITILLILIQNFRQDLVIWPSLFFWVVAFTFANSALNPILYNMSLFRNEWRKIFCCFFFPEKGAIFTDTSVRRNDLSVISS
Method: as §1, §2
as §3, with “The planes were taken at Z intervals of 0.3 μm, and NIS-Elements software was used to deconvolve the images. The microscope was equipped with EM-CCD (Lucas) camera for real time recording of 16-bit digital images.” left out, “The data were summarized from the large number of individual cells (20-40 cells in a single run, with 3-9 identical experiments done in at least three cell preparations).” left out, “nm. […]” for “nm.”

mouse taste bud cells = experiment: Ca2+ signaling (Fura-2/AM, F340/F380) in mouse taste bud cells; assay type: cell-based; conditions: for EC50: 0 to 200 μM, Δ ratio F340/F380, n=6, read-out: EC50 of dose-dependent increases in [Ca2+]i
Method: Briefly, lingual epithelium was separated by enzymatic dissociation which contained the following: elastase and dispase mixture, 2 mg/ml each, in Tyrode's buffer (120 mM NaCl; 5 mM KCl; 10 mM HEPES ((4-(2-hydroxyethyl)-1-piperazineethanesulfonic acid); 1 mM CaCl2; 1 mM MgCl2; 10 mM glucose; 10 mM Na pyruvate, pH 7.4). The taste bud cells were isolated by incubating lingual epithelium in RPMI 1640 medium containing 2 mM EDTA, 1.2 mg/ml elastase, 0.6 mg/ml collagenase (type 1), and 0.6 mg/ml trypsin inhibitor at 37° C. for 10 minutes, followed by centrifugation (600 g, 10 minutes). The cell populations, after separation, were suspended in fresh RPMI 1640 medium containing 10% fetal calf serum, 200 U/ml penicillin, and 0.2 mg/ml streptomycin, seeded onto a Poly-D-Lysine-coated dishes, and cultured for 24 hours. At the end of this period, the cells were used for the experiments or stained with trypan blue to assess their viability.
as §1, §2, §3

C57BL/6J mice = experiment: Liver histology in normal diet or HFD fed mice; assay type: in vivo, mouse; conditions: for liver steatosis in liver sections of obese mice: HFD
Method: as §4, §5, §6
The liver of the mice at the time of sacrifice were fixed in formaldehyde and then dehydrated by passaging into ethanoic media. The liver tissues were embedded into the paraffin and 5μ thick section were cut by the microtome as per standard procedures. The slides, containing tissues, were stained by hematoxylin and eosin dyes as per standard methods. The stained slides were observed under Zeiss light microscope at 10× or 20× magnifications.

obese C57BL/6J mice [2] = experiment: Blood biochemical parameters in diet-induced obese mice (ELISA, automatic analyzer); assay type: in vivo, mouse; conditions: obese animals
Method: as §4, §5, §6
The rat/mouse insulin ELISA kit was obtained from EMD Millipore (USA). ELISA kits for CCK, PYY and GLP-1 were purchased from Cloud-Clone Corp. (USA). The ALAT (Alanine Amino Transferase) was determined by an automatic analyzer (Gilford Model 2000 system, a Beckman System T.R).

mice (C57Bl/6 black) = experiment: Two-bottle preference test; assay type: in vivo, mouse; conditions: for ratio of LA preferred concentration to that of test compound: LA preferred at 7.13 mM or 0.2%; for preference versus control solution (xanthan gum) / effect on palatability of a sucrose-containing solution / preferred (optimal) concentration in two-bottle preference test: 12 h; for preference versus control solution (xanthan gum): 0.3% xanthan gum, test compound 10 to 200 μM or linoleic acid 0.2% (v/v); for effect on palatability of a sucrose-containing solution: sucrose versus sucrose plus test compound 50 μM; for preferred (optimal) concentration in two-bottle preference test: versus xanthan gum
Method: Eight weeks old, male mice (C57Bl/6 black) were purchased from the Janvier Elevage (Le Mans) and used for these experiments.
The mice are placed individually in cages in a controlled environment (humidity and constant temperature) and have free access to a standard diet. 6 hours before the tests, the mice are deprived of water.
During the behavioral experiments, the mice were offered two bottles simultaneously for 12 hours (night period).
The mice are subjected to a choice between the “control” solution and the experimental solution.
Experiment 1 (FIG. 5, FIG. 6A, FIG. 7) • control solutions contain 0.3% xanthan gum, w/v, (Sigma Life Science, USA) in water to reproduce lipid texture and minimize bias due to differences in appearance between the two bottles; • the experimental solution contains, in addition to xanthan gum, 0.3% (w/v), either the “test compound” according to the invention at a concentration varying from 10 to 200 μM (NKS-3, FIG. 6A or NKS-5, FIG. 7) or linoleic acid at 0.2% (v/v) (control test, FIG. 5). To avoid the preference for one side, the position of each bottle is changed during each test.
Experiment 2 (FIG. 6B and FIG. 8): gustatory properties • control solutions contain 2% of sucrose (w/v); • the experimental solution contains, in addition to sucrose (2% w/v), the “test compound” according to the invention (NKS-3, FIG. 6B or NKS-5, FIG. 8) at a concentration of 50 μM.
To estimate the consumption of control and experimental solutions, the bottles are weighed before and after each experiment. The mice are allowed to take rest for 48 hours between each experiment.

Structure (SMILES) | action of CD36 inhibitor SSO on the increase in [Ca2+]i (CD36) | CD36 agonist character (CD36) | body weight in obese mice (obese C57BL/6J mice [1]) | body weight of control animals (obese C57BL/6J mice [1]) | effect of GPR120 inhibitor AH7614 on the increase in [Ca2+]i (GPR120) | increase in [Ca2+]i (mouse taste bud cells) | EC50 (mouse taste bud cells) | liver steatosis in liver sections of obese mice (C57BL/6J mice) | liver histology, normal diet fed mice (C57BL/6J mice) | blood concentration of ALAT (obese C57BL/6J mice [2]) | circulating concentrations of IL-6 (obese C57BL/6J mice [2]) | insulin concentrations (obese C57BL/6J mice [2]) | ratio of LA preferred concentration to that of test compound (mice (C57Bl/6 black)) | preference versus control solution (xanthan gum) (mice (C57Bl/6 black); mice) | effect on palatability of a sucrose-containing solution (mice (C57Bl/6 black); mice) | preferred (optimal) concentration in two-bottle preference test (mice (C57Bl/6 black); mice) | action of CD36 inhibitor SSO on the increase in [Ca2+]i (CD36; listed as LA) | concentration preferred in two-bottle preference test (mice (C57Bl/6 black); mice, 7.13 mM or 0.2%)
CCCCC/C=C\C/C=C\CCCCCCCC(=O)OCC1(C)COC1 [NKS-5, (9Z,12Z)-(3-methyloxetan-3-yl)methyl octadeca-9,12-dienoate] | partially inhibited; also recorded: curtailed, but not completely suppressed | partial agonist | significant decrease in body weight | no effect | significantly curtailed, but not suppressed | very rapid | 30 ± 0.01 µM | curative effects | did not exert any effect | decreased | decrease | decreases | 93 times | spontaneous preference | increases the palatability | 75 µM |  | 
CCCCC/C=C\C/C=C\CCCCCCCCP(=O)(OCC)OCC [NKS-3, diethyl (9Z,12Z)-octadeca-9,12-dien-1-ylphosphonate] | completely blocked; also recorded: completely suppressed | complete CD36 agonist | significant decrease in body weight | no effect |  | very rapid | 25 ± 0.01 µM | curative effects | did not exert any effect | decreased | decrease | decreases | 140 times | spontaneous preference | failed to enhance the palatability | 50 µM |  | 
CCCCC/C=C\C/C=C\CCCCCCCC(=O)O [Linoleic acid, linoleic acid] |  |  |  |  |  | huge increase |  |  |  |  |  |  |  | strong preference |  |  | completely blocked; also recorded: suppressed | 7.13 mM
